Values of other authors in patent publication US20120034273A1, “EXTRUDATE HAVING SPICULAR ACTIVE SUBSTANCES” (Bayer Animal Health GmbH, priority 2008, published 2012).

Details: stated in words, no test described

solubility in water: poorly soluble in water
Structure (SMILES): O=C(C1CCCCC1)N1CC(=O)N2CCc3ccccc3C2C1 (stereo not shown) [praziquantel]
